Reference: US6451789B1, “1-aza-2-alky-6-aryl-cycloalkanes” (Les Labortoires Servier, priority 1999, dated 2002)

Experiments:
Assay type in all cases: in vivo
[1] = tested on: Wistar rat; test: Object recognition in the Wistar rat; conditions: 30 minutes before each session, 24 hours between sessions
Source text: Object Recognition in the Wistar Rat
The object recognition test in the Wistar rat was initially developed by ENNACEUR and DELACOUR (Behav. Brain Res., 1988, 31, 47-59). The test is based on the spontaneous exploratory activity of the animal and has he characteristics of episodic memory in humans. This memory test is sensitive to ageing (SCALI et al., Eur. J. Pharmacol., 1997, 325, 173-180) and to cholinergic dysfunctions (BARTOLINI et al., Pharm. Biochem. Behav. 1996, 53(2), 277-283) and is based on the differences in the exploration of 2 objects of fairly similar shape—one familiar, the other new. Prior to the test, the animals are habituated to the environment (an enclosure without an object). In the course of a first session, the rats are placed (3 minutes) in the enclosure, in which there are 2 identical objects. The duration of exploration is measured for each object. In the course of the second session (3 minutes), 24 hours later, 1 of the 2 objects is replaced by a new object. The duration of exploration is measured for each object. The assessment criterion is the difference, Delta, expressed in seconds, between the exploration times for the new object and for the familiar object in the course of the second session.
The Table hereinbelow gives the difference, Delta, expressed in seconds, between the exploration times of the 2 objects.

[2] = tested on: NMRI mouse; test: Abdominal contractions induced by phenyl-p-benzoquinone (PBQ) in the NMRI mouse; conditions: IP, PBQ at t=30 min, cramps counted t=35-45 min
Procedure: Abdominal Contractions Induced by Phenyl-p-Benzoquinone (PBQ) in the NMRI Mouse
Intraperitoneal administration of an alcoholic solution of PBQ causes abdominal cramps in the mouse (SIEGNUND et al., Proc. Soc. Exp. Biol., 1957, 95, 729-731). The cramps are characterized by repeated contractions of the abdominal musculature, accompanied by extension of the hind limbs. Most analgesics antagonise these abdominal cramps (COLLIER et al., Brit. J. Pharmacol. Chem., 1968, 32, 295-310). At t=0 min., the animals are weight and the compound being studied is administered by the IP route. A group of contol animals is given the solvent used for the compound. At t=30 min., an alcoholic solution of PBQ (0.2%) is administered by the IP route in a volume of 0.25 ml/mouse. Immediately after administration of the PBQ, the animals are placed in cylinders of plexiglass (L=19.5 cm; I.D.=5 cm). From t=35 min. to t=45 min., the animals' reaction is observed and the experimenter notes the total number of abdominal cramps per animal. The Table hereinbelow gives the percentage inhibition of the number of abdominal cramps measured in the control animals, at the active dose of the compound studied.

[3] = tested on: Wistar rat; test: Social recognition in the Wistar rat; conditions: intraperitoneal route, dose 3 mg/kg, second encounter after 2 hours
Source text: Social Recognition in the Wistar Rat
Initially described in 1982 by THOR and HOLLOWAY, (J. Comp. Physiol., 1982, 96, 1000-1006), the social recognition test has subsequently been proposed by various authors (DANTZER et al., Psychopharmacology, 1987, 91, 363-368; PERIO et al., Psycho-pharmacology, 1989, 97, 262-268) for studying the mnemocognitive effects of new compounds. The test is based on the natural expression of the olfactory memory of the rat and its natural tendency to forget and allows evaluation of memorisation, by recognition of a young congeneric animal, by an adult rat. A young rat (21 days), taken at random, is placed for 5 minutes in the cage housing an adult rat. With the aid of a video device, the experimenter observes the social recognition behaviour of the adult rat and measures its overall duration. The young rat is then removed from the adult rat's cage and is placed in its own cage until the second introduction. The adult rat is given the compound under test by intraperitoneal route and, after 2 hours, is again brought into the presence (5 minutes) of the young rat. The social recognition behaviour is then observed again and its duration measured.
The Table hereinbelow gives the difference (T2—T1), expressed in seconds, between the “recognition” times of the 2 encounters.

## CC1=CC(=O)CC(c2cccc(Cl)c2)N1 (racemic) [Example 1, (±)-2-(3-Chlorophenyl)-6-methyl-2,3-dihydro-4(1H)-pyridinone]
[1]; dose 0.3 mg/kg, i.p.
  Delta (s), difference between exploration times for new and familiar object: 7.5 s
[1]; dose 0.3 mg/kg, p.o.
  Delta (s), difference between exploration times for new and familiar object: 9.95 s
[2]; dose 10 mg/kg
  Inhibition (%) of the number of abdominal cramps: 51%
[3]
  T2 − T1 (s), difference between the recognition times of the 2 encounters: -36 s

## CC1=CC(=O)CC(c2ccc(Cl)cc2)N1 (racemic) [Example 24, (±)-2-(4-Chlorophenyl)-6-methyl-2,3-dihydro-4(1H)-pyridinone]
[1]; dose 3 mg/kg, i.p.
  Delta (s), difference between exploration times for new and familiar object: 7.55 s
[3]
  T2 − T1 (s), difference between the recognition times of the 2 encounters: -32 s

## CC1=CC(=O)CC(c2ccc(Cl)cc2)CN1 (racemic) [Example 25, (±)-6-(4-Chlorophenyl)-2-methyl-1,5,6,7-tetrahydro-4H-azepin-4-one]
[2]; dose 20 mg/kg
  Inhibition (%) of the number of abdominal cramps: 69%

## CC1=CC(=O)CC(c2ccc(Cl)c(Cl)c2)N1 (racemic) [Example 26, (±)-2-(3,4-Dichlorophenyl)-6-methyl-2,3-dihydro-4(1H)-pyridinone]
[2]; dose 10 mg/kg
  Inhibition (%) of the number of abdominal cramps: 55%

## COc1cccc(C2CC(=O)C=C(C)N2)c1 (racemic) [Example 27, (±)-2-(3-Methoxyphenyl)-6-methyl-2,3-dihydro-4(1H)-pyridinone]
[1]; dose 3 mg/kg, i.p.
  Delta (s), difference between exploration times for new and familiar object: 6.68 s

## CC1=CC(=O)CC(c2ccsc2)N1 (racemic) [Example 30, (±)-6-Methyl-2-(3-thienyl)-2,3-dihydro-4(1H)-pyridinone]
[2]; dose 20 mg/kg
  Inhibition (%) of the number of abdominal cramps: 51%

## CC1=CC(=O)CC(c2cccnc2)N1 (racemic) [Example 36, (±)-6-Methyl-2-(3-pyridyl)-2,3-dihydro-4(1H)-pyridinone]
[3]
  T2 − T1 (s), difference between the recognition times of the 2 encounters: -36 s

## C[C@@H]1C[C@H](O)C[C@H](c2ccccc2)N1.Cl (relative stereo) [Example 21, (2R*,4S*,6R*)-2-Phenyl-6-methyl-4-piperidinol hydrochloride]
[3]
  T2 − T1 (s), difference between the recognition times of the 2 encounters: -33 s

## C[C@@H]1C[C@H](O)C[C@H](c2ccccc2)N1.O=C(O)C(=O)O (relative stereo) [Example 22, (2R*,4S*,6R*)-2-Phenyl-6-methyl-4-piperidinol oxalate]
[1]; dose 0.3 mg/kg, i.p.
  Delta (s), difference between exploration times for new and familiar object: 9.98 s
[1]; dose 3 mg/kg, p.o.
  Delta (s), difference between exploration times for new and familiar object: 5.93 s

## CC1=CC(=O)C[C@@H](c2cccc(Cl)c2)N1 [Example 18, (2S)-2-(3-Chlorophenyl)-6-methyl-2,3-dihydro-4-(1H)-pyridinone]
[1]; dose 1 mg/kg, p.o.
  Delta (s), difference between exploration times for new and familiar object: 6.2 s
